Laboratory results reported in patent publication US12090179B2, “Methods of synergistic treatment of cancer” (priority 2016, dated 2024).

Key:
[1] = Percent weight change as measure of toxicity in BALB-neuT mice; type: in vivo
Protocol: Female BALB-neu-T mice spontaneously developed palpable mammary fat pad tumors around 16 weeks of age (approximately 50-60 mm^3). At this time (day 0), the mice typically had 1-3 palpable tumors. For each experiment, individual tumors were measured by caliper, and their volume was calculated. Individual tumor volumes were calculated as spheroid (L×W^2×0.52) and combined to give a total tumor burden measurement for each mouse. Tumor burden data was gathered weekly from day 0 to day 35. Additionally, percent weight change data was gathered weekly for each mouse from day 0 to day 35. The percent weight change was calculated based on the baseline weight of each mouse.
Various embodiments of method 200, described above with respect to FIG. 2, were used to treat tumors in the BALB-neuT model using combinations of attenuated S. typhimurium and the chemotherapy agent doxorubicin. A prescribed amount per cfu of the appropriate S. typhimurium strain (SalpIL2 or SalpNG.1) was administered via intravenous injection or gavage orally in 100 μL of PBS. The doxorubicin was administered intravenously via tail vein. Additionally, using the same methods of administration, a number of control groups received PBS alone, doxorubicin alone, SalpIL2 alone, or SalpNG.1 alone.
FIG. 6 is a line graph of percent weight change versus days post-treatment in mice treated with combinations of attenuated S. typhimurium and doxorubicin compared to control groups. Weight change in mice is an accurate measure of the degree of toxicity of a chemotherapy agent. […] While the control group that received PBS (301) saw a greater than 25% increase in weight by day 30, the mice in that group died or were moribund and euthanized due to tumor growth.

mammary fat pad tumors = type: in vivo, BALB-neuT mice
Excerpt: The BALB-neuT model is a genetically engineered mouse model in which mammary tumor development is driven by expression of a constitutively activated rat homolog of human epidermal growth factor receptor 2. In this model, autochthonous tumors develop over several months and are palpable in the mammary pads of female mice around 16 weeks of age. The tumors closely resemble the aggressive Her2-driven cancer found in human patients.
BALB-neuT mice were maintained in specific pathogen free conditions and fed standard mouse chow (Harlan). Animals were cared for by the University of Minnesota's Research Animal Resources, and all animal use was approved by the University's Institutional Animal Care and Use Facility. Genotyping for the neu transgene was performed by Transnetyx on male and female pups. Breeding pairs consisted of heterozygous males and homozygous negative females. Female mice that were positive for the neu transgene were monitored for tumor development.
Three control groups received doxorubicin alone. The first control group (302) received the maximum tolerated dose (MTD) of intravenous (IV) 5 mg/kg doxorubicin on days 0, 7, and 14. The second control group (303) received IV 2.5 mg/kg (50% reduction in MTD) doxorubicin on days 0, 7 and 14.
One control group (305) of mice received SalpIL2 alone. […] Another control group (306) received Salp NG.1 alone.
For combination therapy treatment with SalpIL2, one group of mice (307) received an oral dose of 1×10^9 cfu SalpIL2 as well as IV 1.25 mg/kg doxorubicin on day 0. Two additional doses of IV 1.25 mg/kg doxorubicin were administered on days 7 and 14. For combination therapy treatment with SalpNG.1, a first group of mice (308) received an IV dose of 2×10^6 cfu SalpNG.1 as well as IV 1.25 mg/kg doxorubicin on day 0. Two additional doses of IV 1.25 mg/kg doxorubicin were administered on days 7 and 14. A second group of mice (309) received an IV dose of 2×10^6 cfu SalpNG.1 as well as IV 2.5 mg/kg doxorubicin on day 0. Two additional doses of IV 2.5 mg/kg doxorubicin were administered on days 7 and 14.

[2] = doxorubicin alone IV 1.25 mg/kg on days 0, 7, 14, group 304
[3] = doxorubicin alone IV 5 mg/kg (MTD) on days 0, 7, 14, group 302
[4] = doxorubicin alone IV 1.25 mg/kg (25% of MTD) on days 0, 7, 14, group 304

SMILES: COc1cccc2c1C(=O)c1c(O)c3c(c(O)c1C2=O)C[C@@](O)(C(=O)CO)C[C@@H]3O[C@H]1C[C@H](N)[C@H](O)[C@H](C)O1 [doxorubicin]
- toxicity judged from weight change [1, 2]: non-toxic
- weight change by day 14 [1, 2]: did not show any weight loss
- weight gain by day 35 [1, 2]: < 10%
- toxicity judged from weight change [1, 3]: significant toxicity
- weight loss by day 14 [1, 3]: greater than 20%
- weight loss by day 35 [1, 3]: ~10%
- tumor burden relative to the MTD doxorubicin group (302) by day 21 (mammary fat pad tumors; [4]): almost double
- tumor burden relative to the MTD doxorubicin group (302) by day 35 (mammary fat pad tumors; [4]): ~5 times
- tumor burden compared with groups 302 (MTD) and 304 (1.25 mg/kg) (mammary fat pad tumors; doxorubicin alone IV 2.5 mg/kg (50% of MTD) on days 0, 7, 14, group 303): in between
- tumor burden at day 35 (mammary fat pad tumors; [3]): around 100 mm^3
- tumor burden compared with the other groups (mammary fat pad tumors; [3]): lowest
